{"source": "patent US10314883B2", "about": "“Compositions and methods for regulating blood pressure” (University of Virginia Patent Foundation, priority 2015, dated 2019)", "key": {"[1]": {"system": "thoracodorsal arteries (TDA)", "experiment": "Pressure myography of TDAs electroporated with Panx1 WT or YLK>AAA plasmid", "format": "cell-based, mouse", "conditions": "for EC50: Mus musculus, read-out: EC50 of phenylephrine-induced constriction", "description": "The contractile responses of pressurized thoracodorsal arteries (TDA) were measured as previously described. Briefly, TDA were isolated and placed in cold Krebs-HEPES until cannulation in a pressure arteriograph (Danish MyoTechnology). After a 30 minute equilibration period, cumulative concentrations of contractile agonists were applied to the TDA pressurized at 80 mmHg, and the vessel was visualized with an Olympus IX-71 microscope attached to a Hamamatsu EM-CCD camera coupled to Slidebook imaging software. […] Lastly, maximal diameter was measured at the end of each experiment in calcium-free Krebs-HEPES supplemented with EGTA (1 mmol/L) and sodium nitroprusside (10 μmol/L). In cases where the vessels were not constricting to the contractile agonist, their viability was assessed by applying 40 mM KCl and only TDA reaching 30% of the maximal diameter were considered for analysis. The contractile responses, as well as the basal tone, are expressed as a percentage of the maximal diameter.\nVessel transfection was performed as previously described by us. Briefly, after isolation, TDA were placed in cold, sterile RPMI supplemented with penicillin […] (Gibco), CaCl2 (2 mmol/L) and 1% BSA. Vessels were transferred to a cuvette containing 100 μL of Nucleofector solution (Lonza) containing 5 μg of plasmid, and subjected to electroporation. Arteries were then placed in supplemented RPMI media in an incubator for 14 to 18 hours until cannulation in the pressure arteriograph as described above.\nWe further tested the importance of the YLK sequence within the intracellular loop of Panx1 on phenylephrine-induced vasoconstriction using rescue experiments with intact arteries from mice lacking endogenous Panx1. We reintroduced Panx1 into the SMCs of TDAs from Cre^+/Panx1^F1 mice that had received tamoxifen by selectively transfecting these cells with a plasmid encoding Panx1^WT."}, "[2]": {"system": "thoracodorsal arteries (TDA)"}, "[3]": {"conditions": "TDAs from Cre^+/Panx1^FL with tamoxifen + Panx1^WT"}, "[4]": {"conditions": "TDAs from Cre^+/Panx1^FL with tamoxifen + Panx1^YLK>AAA"}, "[5]": {"conditions": "TDAs from Cre^+/Panx1^FL with tamoxifen, electroporated without plasmid"}, "[6]": {"conditions": "TDAs from Cre^+/Panx1^FL, no tamoxifen, electroporated without plasmid"}}, "note": "Where two headings read alike, the source gives them in different places."}
{"smiles": "CNC[C@H](O)c1cccc(O)c1", "note": "[Phenylephrine, phenylephrine]", "values": [{"measurement": "EC50", "setting": "[1]; [3]", "result": "450 ± 330", "unit": "nM"}, {"measurement": "EC50", "setting": "[1]; [4]", "result": "630 ± 530", "unit": "nM"}, {"measurement": "EC50", "setting": "[1]; [5]", "result": "1130 ± 770", "unit": "nM"}, {"measurement": "EC50", "setting": "[1]; [6]", "result": "640 ± 230", "unit": "nM"}, {"measurement": "EMAX of phenylephrine-induced constriction", "setting": "[1]; [3]", "result": "34.2 ± 6.15 percentage of maximal diameter"}, {"measurement": "EMAX of phenylephrine-induced constriction", "setting": "[1]; [4]", "result": "56.9 ± 5.84 percentage of maximal diameter"}, {"measurement": "EMAX of phenylephrine-induced constriction", "setting": "[1]; [5]", "result": "57.5 ± 9.20 percentage of maximal diameter"}, {"measurement": "EMAX of phenylephrine-induced constriction", "setting": "[1]; [6]", "result": "32.9 ± 4.85 percentage of maximal diameter"}, {"measurement": "EMAX of agonist for TDA constriction", "setting": "[2]; TDAs from Cre^+/Panx1^FL mice, tamoxifen-injected (SMC Panx1 knockout)", "result": "69.1 ± 3.06 percentage of maximal diameter"}, {"measurement": "EMAX of agonist for TDA constriction", "setting": "[2]; TDAs from Cre^+/Panx1^FL mice, tamoxifen-injected (SMC Panx1 knockout), listed as phenylephrine", "result": "69.1±3.06 percentage of maximal diameter"}, {"measurement": "EMAX of agonist for TDA constriction", "setting": "[2]; TDAs from Cre^+/Panx1^WT mice, tamoxifen-injected", "result": "53.5 ± 4.91 percentage of maximal diameter"}, {"measurement": "EMAX of agonist for TDA constriction", "setting": "[2]; TDAs from Cre^−/Panx1^FL mice, tamoxifen-injected", "result": "46.3 ± 5.94 percentage of maximal diameter"}, {"measurement": "EMAX of agonist for TDA constriction", "setting": "[2]; TDAs from Cre^−/Panx1^WT mice, tamoxifen-injected", "result": "51.8 ± 2.66 percentage of maximal diameter"}, {"measurement": "EMAX of agonist for TDA constriction", "setting": "[2]; TDAs isolated from the three control genotypes", "result": "approximately 50 % of maximal diameter"}]}
